These are literature values, as cited in patent publication US20120282337A1, “Modified Release Formulation” (BOEHRINGER INGELHEIM INTERNATIONAL GMBH, priority 2006, published 2012).

Where a name gives a salt, the structure may show the parent alone.

The conditions of series [1]: in vivo.
Assay in series [2]: not given
The source holds these as a separate data set.

For a further series, the target named is dopamine D2 receptor (Homo sapiens, UniProt P14416).
Sequence of dopamine D2 receptor (P14416 whole entry, species assumed): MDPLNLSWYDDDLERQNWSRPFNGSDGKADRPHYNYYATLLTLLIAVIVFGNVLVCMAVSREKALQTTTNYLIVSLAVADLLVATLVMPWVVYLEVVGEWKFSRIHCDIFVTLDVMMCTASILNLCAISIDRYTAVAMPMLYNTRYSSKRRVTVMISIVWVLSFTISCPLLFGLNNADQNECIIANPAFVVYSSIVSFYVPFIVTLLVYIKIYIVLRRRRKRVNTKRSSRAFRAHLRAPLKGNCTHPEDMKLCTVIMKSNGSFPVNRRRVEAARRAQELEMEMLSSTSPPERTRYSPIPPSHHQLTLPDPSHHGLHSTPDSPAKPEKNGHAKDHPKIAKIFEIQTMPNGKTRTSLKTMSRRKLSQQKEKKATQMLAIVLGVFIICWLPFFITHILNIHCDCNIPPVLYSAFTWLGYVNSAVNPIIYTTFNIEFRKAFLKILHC

As to `CCCN[C@H]1CCc2nc(N)sc2C1` [Pramipexole dihydrochloride monohydrate, pramipexole dihydrochloride monohydrate], the “solubility in buffer media” value (between pH 2 and pH 7.4) was “above 10 mg/ml”. For the same compound, the Water solubility entry (water) was “more than 20 mg/ml”.

`CCCN[C@H]1CCc2nc(N)sc2C1` [Pramipexole, (S)-2-Amino-4,5,6,7-tetrahydro-6-(propylamino)benzothiazole]: the kinetics result in series [1] is on record as “linear kinetics”. Moreover, the stability in solution entry in series [2] (in solution) was “light sensitive”. Also, in series [2] (solid state), the “stability in the solid state” value is “very stable”. In addition, the “agonist type at dopamine D2 receptor” value at dopamine D2 receptor is on record as “full agonist”.
